The values below come from PMC5585294, “A potent series targeting the malarial cGMP-dependent protein kinase clears infection and blocks transmission” (Nature Communications, 2017).

Data set [1] is described as follows: Stability in human liver microsomes. As to conditions: human, microsomes, 40 min. As for the experimental part:
(§1) Compound mlm hlm mLogD PAMPA HepG2 name (%rem) (%rem) (nm/s) (IC50 µM)
(§2) Supplementary Table 2. Compound Properties. MLM, HLM, mLogD and PAMPA . mlm (%rem): % of compound remaining after 30 minutes’ incubation with mouse liver microsomes; hlm (%rem): % of compound remaining after 40 minutes’ incubation with human liver microsomes; mLogD: measured LogD at pH 7.4; PAMPA: parallel artificial membrane permeability assay; HepG2: Cytotoxicity assay using HepG2 cells; n.t.: not tested.
(In general: Liver microsomes are vesicles of endoplasmic reticulum, rich in cytochrome P450 enzymes.)

The test system of data set [2] is P. chabaudi (AS). Kind of data set: Synchronous P. chabaudi AS model in BALB/c mice. The data set is classed as in vivo, Plasmodium chabaudi. Particulars: 4 days. As for the experimental part: Similar experiments were performed using P. chabaudi AS (from David Walliker, University of Edinburgh) with the following modifications. To allow dosing to be carried out more conveniently during the day, reversal of the light/dark exposure of mice for 2 weeks prior to the experiment was used to switch schizogony from midnight to noon each day. Mice were dosed at different time points in an attempt to have maximal coverage at the point of schizogony. All animal work protocols carried out at LSHTM were approved and licensed by the United Kingdom Home Office as governed by law under the Animals (Scientific Procedures) Act of 1986, in strict accordance with the Code of Practice Part 1 for the housing and care of animals (21 March 2005), available at http://www.homeoffice.gov.uk/science-research/animal-research/

A short description of data set [3]: Cytotoxicity assay (ATP depletion), MCF7. The data set is classed as cell-based. As to conditions: human, MCF7 breast adenocarcinoma cells, 0.001–10 µM, n = 6. As to the method: (§3) A549 (lung carcinoma; ATCC, Ref. ATCC® CCL-185™), plated at 7.5×10^3 cells/well; HT-29 (colorectal adenocarcinoma; ATCC, Ref. ATCC® HTB-38™), plated at 7.5×10^3 cells/well; and MCF7 (breast adenocarcinoma; ATCC, Ref. ATCC® HTB-22™), plated at 9× 10^3 cells/well, were placed into clear bottom, opaque 96 well plates in cell line-specific medium and allowed to attach overnight. […] FCS, 1× GlutaMAX™ Supplement (Life Technologies, 35050061) and 50 units/ml penicillin and 50 µg/ml streptomycin for 48 h. Six independent assays were performed for each line and were carried out by CXR Biosciences Ltd. End point for cytotoxicity assessment was carried out using an ATP depletion kit (CellTiter-Glo Luminescent Cell Viability Assay for ATP quantitation (Promega, Cat # G7572)). Results expressed relative to the 0.1% DMSO control. Unpaired Student’s t-tests were performed using GraphPad Prism software (7.0).

Data set [4] can be described thus: in vivo. Particulars: BALB/c, mouse, po. The source says:
Supplementary Figure 4. Plasma concentrations over time in rodent malaria models. […] Error bars show the standard deviation. (1 picture or pasted object on this page, not shown here)

The subject of data set [5] is P. falciparum strain 3D7A. Kind of data set: In vitro parasite reduction rate (PRR) assay. Particulars: 10× EC50.
Protocol: The assay used the limiting dilution technique to quantify the number of parasites that remained viable after drug treatment. […] To quantify the number of viable parasites after treatment, threefold serial dilutions were used with the above-mentioned samples after removing the drug. Four independent serial dilutions were performed with each sample to correct experimental variations. The number of viable parasites was determined after 21 and 28 days by counting the number of wells with growth using [^3H]-hypoxanthine incorporation. The number of viable parasites was back-calculated by using the formula X ^n-1 where n is the number of wells able to render growth and X the dilution factor (when n = 0, number of viable parasites is estimated as zero).
A short description of data set [6]: physchem. As to conditions: pH 7.4. As to the method: as §1, §2
Data set [7] is described as follows: Cytotoxicity assay (ATP depletion), A549. The data set is classed as cell-based. Particulars: human, A549 lung carcinoma cells, 0.001–10 µM, n = 6. As to the method:
as §3

The test system of data set [8] is P. falciparum 3D7. Description: Hypoxanthine incorporation growth inhibition assay, asexual blood stage, wild-type 3D7. The data set is classed as cell-based, Plasmodium falciparum. Particulars: 3D7 asexual blood stage growth, 72 h, +/- s.e.m.; for EC50: read-out: EC50 WT. As for the experimental part:
Hypoxanthine incorporation assays[36] were performed on P. falciparum asexual blood stage parasites (wild-type 3D7 or T618Q gatekeeper mutant) to determine EC50 values for test compounds. Mixed staged parasites (primarily rings) were added to 96 well plates containing compounds at concentrations of 50 μM–0.3 nM. […] Assays were carried out in triplicate at least twice.

Data set [9] concerns P. falciparum gatekeeper mutant (T618Q) stage V gametocytes. Kind of data set: Gametogenesis (rounding up) assay, T618Q stage V gametocytes. As to conditions: 30 µM xanthurenic acid; 2 µM ML1, 1 µM ML10. The data set is classed as cell-based, Plasmodium falciparum.
Data set [10] can be described thus: Cytotoxicity assay (ATP depletion), HT-29. In kind it is cell-based. As to conditions: human, HT-29 colorectal adenocarcinoma cells, 0.001–10 µM, n = 6. As for the experimental part: as §3
Data set [11] is described as follows: in vivo. Particulars: NOD-scid IL-2Rγc-null, mouse, po. As to the method:
The blood samples were immediately lysed by mixing with 25 μl of distilled water, frozen on dry ice and stored at −80 °C until analysis. The compounds were extracted from 10 μl of each lysate by liquid–liquid extraction in the MultiScreen Solvinert 0.45 μm Hydrophobic PTFE 96-well plate system (Millipore) and stored frozen at −80 °C until analysis by LC/MS/MS in API4000 (AB Sciex, Framingham, MA). The compound concentration vs. time data were analyzed by non-compartmental analysis using Phoenix® Version 6.3 (Pharsight Corporation, Mountain View, CA, USA). Additional statistical analysis was performed with GraphPad Prism® Version 6.02 (GraphPad Software Inc, San Diego CA, USA).

Data set [12] concerns panel of 80 human protein kinases. Kind of data set: Human kinase panel single point screen. The data set is classed as biochemical. As to conditions: tested at 100 nM. The source says:
The results are expressed as % inhibition of kinase activity.
(1 picture or pasted object on this page, not shown here)

In data set [13] the test system is P. falciparum (NF54) gametocytes. Kind of data set: Standard membrane feeding assay (SMFA), gametocytes fed to Anopheles stephensi. In kind it is cell-based, Plasmodium falciparum. As to conditions: Plasmodium falciparum, NF54; gametocytes pre-incubated 24 h, oocysts counted day 7 post-feed; read-out: IC50 for reduction of the intensity of infection (oocysts). As for the experimental part:
Mature P. falciparum (NF54) gametocytes (14 day culture, 0.3–0.5% gametocytes, 2% haematocrit) were obtained from an automated tipper system and incubated with compound for 24 h as previously described. Anopheles stephensi (Sind-Kasur Nijmegen strain[39] were reared at 30 °C and 70–80% humidity, while exposed to a 12/12 h day/night cycle. On the day of feeding, the gametocyte culture was adjusted to 50% hematocrit with human red blood cells and human serum and fed to 3–5 day old mosquitoes using a glass membrane mini-feeder system containing 0.35 ml of the P. falciparum culture/compound mix[40]. Unfed and partially fed mosquitoes were removed after feeding and blood fed females were maintained at 26 °C and 70–80% humidity. Up to 20 surviving mosquitoes were collected on day 7 post-infection and oocysts were visualized using a 1% merchurochrome solution and quantified by microscopy. IC50 values were determined by logistic regression using Maximum Likelihood Estimation to find best fit[41].

A short description of data set [14]: Cytotoxicity assay using HepG2 cells. Particulars: human. As for the experimental part:
as §1, §2

Data set [15] in a line: Stability in mouse liver microsomes. Particulars: mouse, microsomes, 0.5 h. As for the experimental part:
as §1, §2

Read-outs that look alike come from different tables or passages of the source.

For orientation: EC50 means the concentration needed to bring the measured effect to its halfway point. For orientation: half-life means how long it takes for the measured level to halve. Read a low half-life as fast loss. As usually defined, the logD is the decadic logarithm of the distribution of all forms, ionised or not, between an organic phase and buffer at a given pH. For orientation: EC90 means the concentration needed for an effect of 90%. Higher therefore signals weaker potency. A word on the IC50: it is the concentration that gives 50% inhibition.

Consider `Cc1cn2c(-c3ccnc(NCC4CC4)n3)c(-c3ccc(F)c(NS(C)(=O)=O)c3)nc2cc1CN(C)C` [ML10], for which, in data set [1], the “hlm (%rem)” value was 61%. The “reduction in blood stage parasitaemia” value in data set [2] (single daily oral dose 50 mg/kg just prior to schizogony) was found to be 60.9%. Also, the “reduction in blood stage parasitaemia (mean)” value in data set [2] (twice daily oral dose 50 mg/kg (3 h apart)) amounted to 97.8%. The EC50 at 48 h in data set [3], in data set [7] and in data set [10] was over 10 µM in each case. The half-life was 48 min in [4] (25 mg/kg), 66 min in [4] (50 mg/kg), 522 min in data set [11] (50 mg/kg) and 1020 min in data set [11] (100 mg/kg). The same molecule registered a concentration at 30 min in data set [4] (50 mg/kg) of 10.4 µM. For the same molecule, the concentration at 60 min in [4] (50 mg/kg) was about 8.4 µM. Moreover, the concentration at 4 h in [4] (50 mg/kg) is under 84 nM. Besides, the “lag before killing (effects reversible following wash-out)” value in data set [5] was “about 24 h”. This molecule also yielded a logD in data set [6] of 2.8. Besides, the EC50 is 2.1 nM in data set [8] and about 2 nM in data set [8] (Plasmodium falciparum, 3D7, 72 h). Further, it took 4.5 nM to reach the 90% level in data set [8] (Plasmodium falciparum) (EC90). In addition, in data set [9], the “rounding up of T618Q gametocytes” value was “insensitive”. The “inhibitory activity against panel of 80 human protein kinases” value in [12] is reported as “only low levels of inhibitory activity”. Further, the IC50 is 41.3 nM in data set [13] and over 20 µM in data set [14]. In data set [15], the “mlm (%rem)” value is 59%.
